Like-named read-outs stand apart in the source and are kept apart here.
What was measured:
[1] = test system: castrated male rats with osteoporosis; conditions: for length of femur: model 3.26 ± 0.09; for ash weight of femur: model 187.5 ± 18.0; for calcium content of femur: model 245.1 ± 25.7; for dry weight of femur: model 360.0 ± 32.1; for wet weight of femur: model 638.3 ± 57.6
Procedure: After pulled off soft tissue, the right femur was dried for 5 hours in oven at the temperature of 120° C. until its weight kept a constant (dry weight), then the product was baked for 6 hours in muffle furnace at the temperature of 800° C. until the weight of the product kept a constant which was the ash weight, namely the total amount of inorganic salts. After part of the ash was resolved in dilute hydrochloride, the calcium content of ash was measured by the method of EDTA titration. All data was expressed as X±SD(n). The significance of differences between groups were assessed using the "T-test" method of two groups of small specimen.
In this test, the measuring methods for serum Ca, P, AKP levels, the bone mineral density, the length of femur, wet weight, dry weight, ash weight, the calcium content and the biomechanics of femur were all the same as in test II.

rickets-babies [2] = test system: rickets-babies
Procedure: Fourty rickets-babies at the age of 3-10 months were randomly divided into 2 groups of 20 babies each. […] Test group II, namely the calcium carbonate group, were administered orally calcium carbonate twice a day in a dosage of one bag each time.
(2) Biochemical examinations of blood. Venous blood of rickets-baby was sampled before and after the beginning of test and serum Ca, P and AKP level were measured and the product of [Ca]×[P] was calculated.
(3) Data processing: All data was statistically analyzed using the method of direct calculation of probability, grouping t-test and pairing t-test.
Considering the difficulty in sampling blood from rickets-babies during the test operation, blood sampling was not performed at the second week after the beginning of the test. Blood sampling was only performed before the test and at the fourth week after the beginning of the test.

[3] = test system: castrated male rats with osteoporosis; conditions: for serum Ca: model 1.80 ± 0.37; for serum P: model 2.03 ± 0.48; for AKP level in serum (in Bessey-Loury unit): model 96.7 ± 26.4
Procedure: Serum Ca, P and AKP were measured by a 4010 Automatic Biochemical Analyzer. Serum Ca was determined by calorimetric method using methylthymol blue. Serum P was determined by Mono-Reagent Method. Alkaline phosphatase was determined by method of disodium p-nitrophenylphosphonate (AKP) The tartaric-resistant acidic phosphatase (Tr-ACP) mineral was determined by Piedra procedure. All above reagent-box were available from the Clinical Chemicals Sub-plant of Beijing Chemical Plant.
The pure synthetic low-calcium diet and apparatus used in this test were the same as in test II.

[4] = test system: ovariectomized rats with osteoporosis; conditions: for Y (flexibility, tenacity): model-control 4.0 ± 1.1; for P (maximum of force at yielding point, femur strength): model-control 6.7 ± 1.2; for S (work to yield or break femur): model-control 11.3 ± 4.7
Procedure: Female rats at the age of 3 months were excised of bilateral ovaries under sterilized condition, and were then fed low-calcium diet and offered with deionized water for 75 days, thus made an osteoporosis model.
Seventy healthy rats were selected and divided randomly into five groups of 14 rats. […] Group 1-5 were administered one time per day and 6 times per week and were also fed low-calcium diet and de-ionized water. The test period was 75 days. When the test was finished, rats were killed by bleeding from bilateral thigh arteries, the separated serum was used for measurement of biochemical parameters such as Ca, P, and AKP and Tr-ACP levels in serum. The bilateral femurs of rats were stripped off and stored in refrigerator. After the measurement of the bone mineral density, the left femur was stored for analysis of biomechanical characteristics. The right femur was stored for analysis of Ca content in femur.
Three-point bending test was done on the fresh femur iced in refrigerator with a Model WD-1 Electron Universal Test Machine under the following conditions: a span of 2.5 cm, a 25 kg sensor (1/50), a speed of 2 mm/minute. The function of load versus flexibility was recorded by a finction recorder, wherein P represented the maximum of force at yielding point, Y was flexibility indicating the tenacity of materials. K, as the rate of slope, was a rigidity parameter of materials and was associated with the degree of calcification in bone mechanics. S stood for the work to yield or break femur.

[5] = Solubility of calcium L-threonate; type: physicochemical
[6] = test system: castrated male rats with osteoporosis; conditions: for bone mineral density F50: model-control 0.235 ± 0.022; for bone mineral density F20: model-control 0.244 ± 0.025
From the text: (4) Measurement of bone mineral density.

rickets-babies [7] = conditions: for craniomalacia, babies with symptom after the beginning of test: before test 3 (threonate), 4 (carbonate); for pillow-bald, babies with symptom after the beginning of test: before test 9 (threonate), 9 (carbonate); for night-sweat, babies with symptom after the beginning of test: before test 12 (threonate), 13 (carbonate)
Procedure: Fourty rickets-babies at the age of 3-10 months were randomly divided into 2 groups of 20 babies each. […] Test group II, namely the calcium carbonate group, were administered orally calcium carbonate twice a day in a dosage of one bag each time. Each bag of the two kind of calcium preparations contained the same amount of element calcium, namely 150 mg element calcium.
(1) Clinic symptoms mainly included the normal symptoms of rickets-babies such as night-sweat, pillow-bald, craniomalacia, etc.

[8] = dog, in vivo
rickets-mice = assay: Preventing rickets in younger mice: tibia strength (three-point bending); type: in vivo, mice of Kunming species; conditions: for breaking force (tibia): model 1.12 ± 0.37
Procedure: The mice were bred for 60 days under conditions of avoiding light around-the-clock, at a temperature of 20-25° C. and a relative humility of 40-60% while the normal-control group mice were fed ordinary diet and water and were placed in non-dark room.
The low-calcium diet used in this test was the same as that in Test II but VD in the vitamin mixture was replaced by glucose.
Some weanling mice were placed in dark room and fed VD -deficient low-calcium diet and drunk de-ionized water for 60 days, thus a ricket model of baby mice was prepared. While other weanling mice were placed in non-dark room and fed ordinary diet and drunk tap water for 60 days, these mice were established as normal-control group.

in vivo = conditions: rat, in vivo
From the text: (2) apparatus: Model WFX-1B Spectrophotometer of Atomic Absorption was produced by The Second Optical Apparatus Factory of Beijing, 83114; P-E 3030 Spectrophotometer of Atomic Absorption was produced by Perkin-Elmer Corp.,USA;DT-100 Single-Pan Balance (1/10^4) was produced by Beijing Optical Apparatus Factory; TJ-6 Centrifuge was produced by Beckman, USA; Model MVS-1 Vortex Mixer was produced by Beijing Beide Scientific Apparatus and Materials Co. Ltd.
Twelve hours after the animals had been fasted, 0.5 mL plasma was sampled by excising eyeballs. The plasma was established as the blank group. Then rats were administered agents once in an amount of 20 mL/kg body weight by pouring into the stomach. 0.5 mL plasma was sampled by taking from eyeballs 0.25,0.5,1,1.5,2,3,4,6,8,12 and 16 hours later after the administration. […] The concentration of calcium was measured by a Model WFX-1B Spectrophotometer of Atomic Absorption.

[9] = 2.31 g/kg/d (300 mg calcium; Caltrate-D 0.65 g/kg/d)
[10] = after four weeks of Ca-supplementing

## O=C(O)[C@H](O)[C@@H](O)CO [calcium L-threonate]
[1]; 0.76 g/kg/d
  length of femur: 3.34 ± 0.05 cm
  ash weight of femur: 233.1 ± 19.76 mg
  calcium content of femur: 267.0
  dry weight of femur: 416.7 ± 29.7 g
  wet weight of femur: 688.4 ± 47.4 g
[1]; 1.54 g/kg/d
  length of femur: 3.34 ± 0.08 cm
  ash weight of femur: 269.66 ± 23.4 mg
  calcium content of femur: 268.2
  dry weight of femur: 458.1 ± 39.1 g
  wet weight of femur: 720.2 ± 69.7 g
[1]; [9]
  length of femur: 3.35 ± 0.09 cm
  ash weight of femur: 278.2 ± 31.8 mg
  calcium content of femur: 266.7
  dry weight of femur: 473.4 ± 57.2 g
  wet weight of femur: 747.3 ± 95.2 g
[1]; rat, in vivo
  femur length, weights and calcium content (in words): markedly higher femur length, wet weight, dry weight, ash weight and calcium content than those of the model group rats
rickets-babies [2]; [10]
  percentage of babies whose AKP reached the normal range: 90%
  percentage of babies whose [Ca] × [P] reached the normal range: 100%
  percentage of babies whose serum P reached the normal range: 100%
rickets-babies [2]; before and after the test, P>0.05
  serum Ca change (in words): no significant variation
rickets-babies [2]; four weeks
  serum P and AKP after test versus normal range (in words): raise the indexes to the normal range of value
rickets-babies [2]; four weeks after, before 3.19 ± 0.25 (threonate), 3.12 ± 0.20 (carbonate)
  serum P: 4.50 ± 0.26
rickets-babies [2]; four weeks after, before 10.49 ± 0.39 (threonate), 10.51 ± 0.47 (carbonate)
  serum Ca: 10.65 ± 0.35
rickets-babies [2]; four weeks after, before 33.4 ± 2.47 (threonate), 33.83 ± 2.17 (carbonate)
  [Ca] × [P]: 47.34 ± 3.15
rickets-babies [2]; four weeks after, before 235.95 ± 7.89 (threonate), 235.25 ± 7.37 (carbonate)
  AKP: 203.75 ± 11.46
[3]; 100 mg element calcium/kg/d
  serum Ca: 1.97 ± 0.52 mmol/L
  serum P: 1.87 ± 0.39 mmol/L
  AKP level in serum (in Bessey-Loury unit): 88.3 ± 13.7 U/L
[3]; 200 mg element calcium/kg/d
  serum Ca: 2.20 ± 0.60 mmol/L
  serum P: 1.78 ± 0.55 mmol/L
  AKP level in serum (in Bessey-Loury unit): 59.2 ± 12.0 U/L
[3]; 300 mg element calcium/kg/d
  serum Ca: 2.17 ± 0.62 mmol/L
  serum P: 1.48 ± 0.55 mmol/L
  AKP level in serum (in Bessey-Loury unit): 56.1 ± 6.2 U/L
[3]; rat, in vivo
  serum calcium effect (in words): significantly higher than that of model group
[4]; 100 mg element calcium/kg/d
  K (rigidity parameter, calcified degree): 2.71 ± 0.36
  Y (flexibility, tenacity): 4.1 ± 0.7
  P (maximum of force at yielding point, femur strength): 7.9 ± 1.0
  S (work to yield or break femur): 14.0
[4]; 200 mg element calcium/kg/d
  K (rigidity parameter, calcified degree): 2.75 ± 0.31
  Y (flexibility, tenacity): 5.3 ± 1.4
  P (maximum of force at yielding point, femur strength): 8.5 ± 0.8
[4]; 300 mg element calcium/kg/d
  Y (flexibility, tenacity): 5.9 ± 1.2
  P (maximum of force at yielding point, femur strength): 9.6 ± 1.7
  S (work to yield or break femur): 29.4
[5]; alcohol, ether, chloroform
  solubility in alcohol, ether and chloroform: not in alcohol, ether and chloroform
[5]; water
  solubility in water: can be solved in water
[6]; 100 mg element calcium/kg/d
  bone mineral density F50: 0.255 ± 0.025 BMC/BW
  bone mineral density F20: 0.297 ± 0.037 BMC/BW
[6]; 200 mg element calcium/kg/d
  bone mineral density F50: 0.269 ± 0.019 BMC/BW
  bone mineral density F20: 0.308 ± 0.020 BMC/BW
[6]; 300 mg element calcium/kg/d
  bone mineral density F50: 0.274 ± 0.018 BMC/BW
  bone mineral density F20: 0.327 ± 0.033 BMC/BW
rickets-babies [7]; 300 mg element calcium
  therapeutic effect on baby rickets (in words): significantly superior to that of calcium carbonate
rickets-babies [7]; four weeks
  total symptom improvement: 100%
  craniomalacia, babies with symptom after the beginning of test: 0
  pillow-bald, babies with symptom after the beginning of test: 0
  night-sweat, babies with symptom after the beginning of test: 0
rickets-babies [7]; two weeks
  total symptom improvement: 62.5%
  craniomalacia, babies with symptom after the beginning of test: 2
  pillow-bald, babies with symptom after the beginning of test: 7
  night-sweat, babies with symptom after the beginning of test: 0
rickets-babies [7]; two weeks of administration (concluding text)
  rickets-babies free of symptoms: 62%
[8]
  kinetic change of serum levels and pharmaceutical dynamic parameters (in words): consistent with those of rats
rickets-mice; 200 mg calcium element
  breaking force (tibia): 1.49 ± 0.38 kg
rickets-mice; 300 mg calcium element
  breaking force (tibia): 1.59 ± 0.27 kg
rickets-mice; mouse, in vivo
  breaking force of tibia (in words): significantly higher than those for the model group and were comparable with those for the normal-control group
In vivo
  absorption rate constant ka: 6.14 h⁻¹
In vivo; po
  CL/F: 17.3 mL/min/kg
  Vd/F: 6.69 L/kg
In vivo; po, 200 mg/kg
  AUC: 192 µg·h/mL
  Cmax: 27200 ng/mL
  half-life: 4.45 h
In vivo; po, 200 mg/kg, Tmax
  Tmax: 0.797 h

Reference: patent US6077872A (priority 1998, dated 2000)
